According to patent US20200231638A1, “STABILIZED ANTI-MICROBIAL PEPTIDES” (priority 2015, published 2020):
Bridge positions count the residues as written; N and C are the ends. Square brackets hold non-standard residues; d marks the D form. Peptide text beside a SMILES is read from it. R8 = C=CCCCCCC[C@@](C)(N)C(=O)O; S5 = C=CCCC[C@](C)(N)C(=O)O; Nle = CCCC[C@H](N)C(=O)O

Columns and labels:
human red blood cells = assay type: cell-based; settings: red cells of human, 1 h, 25
In short: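 Hemolysis expressed as absorbance of released hemoglobin (570 nm) normalized between untreated and 1% Triton-X100 controls, with MHC taken as peptide concentration giving under 1% release. Peptide dilutions were exposed for 1 h at 37° C to a 1% (v/v) suspension of washed human red cells in PBS.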

B. cereus = assay type: cell-based, Bacillus cereus
In short: (§1)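 Microdilution MIC test in polyanion-depleted MHB, with a final inoculum of 5×10^5 CFU/ml and 20-24 h incubation at 37° C.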

P. aeruginosa = assay type: cell-based, Pseudomonas aeruginosa
In short: as §1

E. coli = assay type: cell-based, Escherichia coli
In short: as §1

S. aureus = assay type: cell-based, Staphylococcus aureus
In short: as §1

Compound | % Hemolysis at 25 μg/ml (human red blood cells) [%] | MIC B. cereus (B. cereus) [µg/mL] | MIC P. aeruginosa (P. aeruginosa) [µg/mL] | MIC E. coli (E. coli) [µg/mL] | MIC S. aureus (S. aureus) [µg/mL]
CCCC[C@H](NC(=O)[C@@H](NC(=O)[C@H](CCC(=O)O)NC(=O)CNC(=O)[C@@H](NC(=O)[C@H](Cc1ccccc1)NC(=O)[C@H](C)NC(=O)[C@H](CCCCN)NC(=O)CNC(=O)[C@H](Cc1ccccc1)NC(=O)[C@H](CCCCN)NC(=O)[C@]1(C)CCCC=CCCCCCC[C@@](C)(NC(=O)[C@@H](NC(=O)CN)[C@@H](C)CC)C(=O)N[C@@H](CCCCN)C(=O)N[C@@H](Cc2ccccc2)C(=O)N[C@@H](CC(C)C)C(=O)N[C@@H](Cc2c[nH]cn2)C(=O)N[C@@H](CO)C(=O)N[C@@H](C)C(=O)N1)C(C)C)[C@@H](C)CC)C(=O)N[C@@H](CC(N)=O)C(=O)N[C@@H](CO)C(N)=O [Mag(i + 7)2] (H-GI[R8]KFLHSA[S5]KFGKAFVGEI[Nle]NS-NH2; staple 3-10 (inferred); N-terminus and C-terminus assumed) | 69.3 | 6.2 | 12.5 | 3.1 | 12.5
CCCC[C@H](NC(=O)[C@@H](NC(=O)[C@H](CCC(=O)O)NC(=O)CNC(=O)[C@@H](NC(=O)[C@H](Cc1ccccc1)NC(=O)[C@H](C)NC(=O)[C@H](CCCCN)NC(=O)CNC(=O)[C@H](Cc1ccccc1)NC(=O)[C@]1(C)CCCC=CCCCCCC[C@@](C)(NC(=O)CNC(=O)[C@@H](NC(=O)CN)[C@@H](C)CC)C(=O)N[C@@H](Cc2ccccc2)C(=O)N[C@@H](CC(C)C)C(=O)N[C@@H](Cc2c[nH]cn2)C(=O)N[C@@H](CO)C(=O)N[C@@H](C)C(=O)N[C@@H](CCCCN)C(=O)N1)C(C)C)[C@@H](C)CC)C(=O)N[C@@H](CC(N)=O)C(=O)N[C@@H](CO)C(N)=O [Mag(i + 7)3] (H-GIG[R8]FLHSAK[S5]FGKAFVGEI[Nle]NS-NH2; staple 4-11 (inferred); N-terminus and C-terminus assumed) | 52.5 | 12.5 | 25 | 6.2 | 12.5
CCCC[C@H](NC(=O)[C@@H](NC(=O)[C@H](CCC(=O)O)NC(=O)CNC(=O)[C@@H](NC(=O)[C@H](Cc1ccccc1)NC(=O)[C@H](C)NC(=O)[C@H](CCCCN)NC(=O)CNC(=O)[C@]1(C)CCCC=CCCCCCC[C@@](C)(NC(=O)[C@H](CCCCN)NC(=O)CNC(=O)[C@@H](NC(=O)CN)[C@@H](C)CC)C(=O)N[C@@H](CC(C)C)C(=O)N[C@@H](Cc2c[nH]cn2)C(=O)N[C@@H](CO)C(=O)N[C@@H](C)C(=O)N[C@@H](CCCCN)C(=O)N[C@@H](CCCCN)C(=O)N1)C(C)C)[C@@H](C)CC)C(=O)N[C@@H](CC(N)=O)C(=O)N[C@@H](CO)C(N)=O [Mag(i + 7)4] (H-GIGK[R8]LHSAKK[S5]GKAFVGEI[Nle]NS-NH2; staple 5-12 (inferred); N-terminus and C-terminus assumed) | 42.6 | 6.2 | 3.1 | 1.6 | 25
CCCC[C@H](NC(=O)[C@@H](NC(=O)[C@H](CCC(=O)O)NC(=O)CNC(=O)[C@@H](NC(=O)[C@H](Cc1ccccc1)NC(=O)[C@H](C)NC(=O)[C@H](CCCCN)NC(=O)[C@]1(C)CCCC=CCCCCCC[C@@](C)(NC(=O)[C@H](Cc2ccccc2)NC(=O)[C@H](CCCCN)NC(=O)CNC(=O)[C@@H](NC(=O)CN)[C@@H](C)CC)C(=O)N[C@@H](Cc2c[nH]cn2)C(=O)N[C@@H](CO)C(=O)N[C@@H](C)C(=O)N[C@@H](CCCCN)C(=O)N[C@@H](CCCCN)C(=O)N[C@@H](Cc2ccccc2)C(=O)N1)C(C)C)[C@@H](C)CC)C(=O)N[C@@H](CC(N)=O)C(=O)N[C@@H](CO)C(N)=O [Mag(i + 7)5] (H-GIGKF[R8]HSAKKF[S5]KAFVGEI[Nle]NS-NH2; staple 6-13 (inferred); N-terminus and C-terminus assumed) | 87.0 | 3.1 | 3.1 | 3.1 | 6.2
CCCC[C@H](NC(=O)[C@@H](NC(=O)[C@H](CCC(=O)O)NC(=O)CNC(=O)[C@@H](NC(=O)[C@H](Cc1ccccc1)NC(=O)[C@H](C)NC(=O)[C@]1(C)CCCC=CCCCCCC[C@@](C)(NC(=O)[C@H](CC(C)C)NC(=O)[C@H](Cc2ccccc2)NC(=O)[C@H](CCCCN)NC(=O)CNC(=O)[C@@H](NC(=O)CN)[C@@H](C)CC)C(=O)N[C@@H](CO)C(=O)N[C@@H](C)C(=O)N[C@@H](CCCCN)C(=O)N[C@@H](CCCCN)C(=O)N[C@@H](Cc2ccccc2)C(=O)NCC(=O)N1)C(C)C)[C@@H](C)CC)C(=O)N[C@@H](CC(N)=O)C(=O)N[C@@H](CO)C(N)=O [Mag(i + 7)6] (H-GIGKFL[R8]SAKKFG[S5]AFVGEI[Nle]NS-NH2; staple 7-14 (inferred); N-terminus and C-terminus assumed) | 47.1 | 6.2 | 25 | 3.1 | 6.2
CCCC[C@H](NC(=O)[C@@H](NC(=O)[C@H](CCC(=O)O)NC(=O)CNC(=O)[C@@H](NC(=O)[C@H](Cc1ccccc1)NC(=O)[C@]1(C)CCCC=CCCCCCC[C@@](C)(NC(=O)[C@H](Cc2c[nH]cn2)NC(=O)[C@H](CC(C)C)NC(=O)[C@H](Cc2ccccc2)NC(=O)[C@H](CCCCN)NC(=O)CNC(=O)[C@@H](NC(=O)CN)[C@@H](C)CC)C(=O)N[C@@H](C)C(=O)N[C@@H](CCCCN)C(=O)N[C@@H](CCCCN)C(=O)N[C@@H](Cc2ccccc2)C(=O)NCC(=O)N[C@@H](CCCCN)C(=O)N1)C(C)C)[C@@H](C)CC)C(=O)N[C@@H](CC(N)=O)C(=O)N[C@@H](CO)C(N)=O [Mag(i + 7)7] (H-GIGKFLH[R8]AKKFGK[S5]FVGEI[Nle]NS-NH2; staple 8-15 (inferred); N-terminus and C-terminus assumed) | 95.5 | 3.1 | 6.2 | 3.1 | 3.1
CCCC[C@H](NC(=O)[C@@H](NC(=O)[C@H](CCC(=O)O)NC(=O)CNC(=O)[C@@H](NC(=O)[C@]1(C)CCCC=CCCCCCC[C@@](C)(NC(=O)[C@H](CO)NC(=O)[C@H](Cc2c[nH]cn2)NC(=O)[C@H](CC(C)C)NC(=O)[C@H](Cc2ccccc2)NC(=O)[C@H](CCCCN)NC(=O)CNC(=O)[C@@H](NC(=O)CN)[C@@H](C)CC)C(=O)N[C@@H](CCCCN)C(=O)N[C@@H](CCCCN)C(=O)N[C@@H](Cc2ccccc2)C(=O)NCC(=O)N[C@@H](CCCCN)C(=O)N[C@@H](C)C(=O)N1)C(C)C)[C@@H](C)CC)C(=O)N[C@@H](CC(N)=O)C(=O)N[C@@H](CO)C(N)=O [Mag(i + 7)8] (H-GIGKFLHS[R8]KKFGKA[S5]VGEI[Nle]NS-NH2; staple 9-16 (inferred); N-terminus and C-terminus assumed) | 85.4 | 3.1 | 3.1 | 1.6 | 6.2
CCCC[C@H](NC(=O)[C@@H](NC(=O)[C@H](CCC(=O)O)NC(=O)CNC(=O)[C@]1(C)CCCC=CCCCCCC[C@@](C)(NC(=O)[C@H](C)NC(=O)[C@H](CO)NC(=O)[C@H](Cc2c[nH]cn2)NC(=O)[C@H](CC(C)C)NC(=O)[C@H](Cc2ccccc2)NC(=O)[C@H](CCCCN)NC(=O)CNC(=O)[C@@H](NC(=O)CN)[C@@H](C)CC)C(=O)N[C@@H](CCCCN)C(=O)N[C@@H](Cc2ccccc2)C(=O)NCC(=O)N[C@@H](CCCCN)C(=O)N[C@@H](C)C(=O)N[C@@H](Cc2ccccc2)C(=O)N1)[C@@H](C)CC)C(=O)N[C@@H](CC(N)=O)C(=O)N[C@@H](CO)C(N)=O [Mag(i + 7)9] (H-GIGKFLHSA[R8]KFGKAF[S5]GEI[Nle]NS-NH2; staple 10-17 (inferred); N-terminus and C-terminus assumed) | 94.6 | 3.1 | 3.1 | 3.1 | 3.1
CCCC[C@H](NC(=O)[C@@H](NC(=O)[C@H](CCC(=O)O)NC(=O)[C@]1(C)CCCC=CCCCCCC[C@@](C)(NC(=O)[C@H](CCCCN)NC(=O)[C@H](C)NC(=O)[C@H](CO)NC(=O)[C@H](Cc2c[nH]cn2)NC(=O)[C@H](CC(C)C)NC(=O)[C@H](Cc2ccccc2)NC(=O)[C@H](CCCCN)NC(=O)CNC(=O)[C@@H](NC(=O)CN)[C@@H](C)CC)C(=O)N[C@@H](Cc2ccccc2)C(=O)NCC(=O)N[C@@H](CCCCN)C(=O)N[C@@H](C)C(=O)N[C@@H](Cc2ccccc2)C(=O)N[C@@H](C(C)C)C(=O)N1)[C@@H](C)CC)C(=O)N[C@@H](CC(N)=O)C(=O)N[C@@H](CO)C(N)=O [Mag(i + 7)10] (H-GIGKFLHSAK[R8]FGKAFV[S5]EI[Nle]NS-NH2; staple 11-18) | 53.1 | 6.2 | 6.2 | 3.1 | 3.1
CCCC[C@H](NC(=O)[C@@H](NC(=O)[C@]1(C)CCCC=CCCCCCC[C@@](C)(NC(=O)[C@H](CCCCN)NC(=O)[C@H](CCCCN)NC(=O)[C@H](C)NC(=O)[C@H](CO)NC(=O)[C@H](Cc2c[nH]cn2)NC(=O)[C@H](CC(C)C)NC(=O)[C@H](Cc2ccccc2)NC(=O)[C@H](CCCCN)NC(=O)CNC(=O)[C@@H](NC(=O)CN)[C@@H](C)CC)C(=O)NCC(=O)N[C@@H](CCCCN)C(=O)N[C@@H](C)C(=O)N[C@@H](Cc2ccccc2)C(=O)N[C@@H](C(C)C)C(=O)NCC(=O)N1)[C@@H](C)CC)C(=O)N[C@@H](CC(N)=O)C(=O)N[C@@H](CO)C(N)=O [Mag(i + 7)11] (H-GIGKFLHSAKK[R8]GKAFVG[S5]I[Nle]NS-NH2; staple 12-19 (inferred); N-terminus and C-terminus assumed) | 84.8 | 3.1 | 1.6 | 1.6 | 3.1
